According to paper PMC12655637, “Design, Synthesis, and Mechanistic Study of Novel Ciprofloxacin/Thiazole Chalcone Hybrids as Potential Anticancer Agents” (Pharmaceuticals, 2025):
Like-named read-outs stand apart in the source and are kept apart here.

Experiments:
MDA-MB-435 = test: NCI-60 screening, one-dose (10 µM) and five-dose, SRB; format: cell-based; settings: Homo sapiens, MDA-MB-435, read-out: Growth percentage, 10 μM; MDA-MB-435, Melanoma
OVCAR-8 = test: as above; format: cell-based, human; settings: Homo sapiens; 10 μM; OVCAR-8, Ovarian Cancer; read-out: Growth percentage
SNB-19 = test: as above; format: cell-based; settings: Homo sapiens; 10 μM; SNB-19, CNS Cancer; read-out: Growth percentage
SK-OV-3 = test: as above; format: cell-based, human; settings: Homo sapiens; 10 μM; SK-OV-3, Ovarian Cancer; read-out: Growth percentage
SW-620 = test: as above; format: cell-based, human; settings: Homo sapiens; 10 μM; SW-620, Colon Cancer; read-out: Growth percentage
OVCAR-5 = test: as above; format: cell-based, human; settings: 10 μM; OVCAR-5, Ovarian Cancer
SN12C = test: as above; format: cell-based, human; settings: Homo sapiens, 10 μM, Renal Cancer, read-out: Growth percentage
HCT-15 = test: as above; format: cell-based, human; settings: Homo sapiens; 10 μM; HCT-15, Colon Cancer; read-out: Growth percentage
HT29 = test: as above; format: cell-based, human; settings: Homo sapiens, HT-29; 10 μM; HT29, Colon Cancer; read-out: Growth percentage
OVCAR-3 = test: as above; format: cell-based; settings: Homo sapiens; 10 μM; OVCAR-3, Ovarian Cancer; read-out: Growth percentage
KM12 = test: as above; format: cell-based, human; settings: Homo sapiens, KM12, 10 μM; KM12, Colon Cancer; read-out: Growth percentage
NCI-H226 = test: as above; format: cell-based, human; settings: Homo sapiens; 10 μM; NCI-H226, Non-Small-Cell Lung Cancer; read-out: Growth percentage
ACHN = test: as above; format: cell-based, human; settings: Homo sapiens, 10 μM, Renal Cancer, read-out: Growth percentage
HS 578T = test: as above; format: cell-based, human; settings: Homo sapiens, 10 μM, Breast Cancer, read-out: Growth percentage
UACC-257 = test: as above; format: cell-based, human; settings: Homo sapiens; 10 μM; UACC-257, Melanoma; read-out: Growth percentage
HOP-62 = test: as above; format: cell-based, human; settings: Homo sapiens, HOP-62, 10 μM; HOP-62, Non-Small-Cell Lung Cancer; read-out: Growth percentage
MDA-MB-468 = test: as above; format: cell-based, human; settings: Homo sapiens, MDA-MB-468, 10 μM; MDA-MB-468, Breast Cancer; read-out: Growth percentage
From the text: Control cells Test cells FLD
available usually at NCI library.
An aliquot of frozen drug concentrate is […]

MDA-MB231/ATCC = test: as above; format: cell-based; settings: 10 μM; MDA-MB231/ATCC, Breast Cancer
T-47D = test: as above; format: cell-based, human; settings: 10 μM, Breast Cancer
A549/ATCC = test: as above; format: cell-based, human; settings: Homo sapiens, 10 μM, Non-Small-Cell Lung Cancer, read-out: Growth percentage
HL-60(TB) = test: as above; format: cell-based, human; settings: Homo sapiens, HL-60, 10 μM; HL-60(TB), Leukemia; read-out: Growth percentage
TK-10 = test: as above; format: cell-based, human; settings: Homo sapiens; 10 μM; TK-10, Renal Cancer; read-out: Growth percentage
MOLT-4 = test: as above; format: cell-based, human; settings: Homo sapiens; 10 μM; MOLT-4, Leukemia; read-out: Growth percentage
CCRF-CEM = test: as above; format: cell-based, human; settings: Homo sapiens, 10 μM, Leukemia, read-out: Growth percentage
SF-539 = test: as above; format: cell-based, human; settings: Homo sapiens, SF-539, 10 μM; SF-539, CNS Cancer; read-out: Growth percentage
NCI-H522 = test: as above; format: cell-based, human; settings: Homo sapiens; 10 μM; NCI-H522, Non-Small-Cell Lung Cancer; read-out: Growth percentage
SK-MEL-2 = test: as above; format: cell-based, human; settings: Homo sapiens; 10 μM; SK-MEL-2, Melanoma; read-out: Growth percentage
NCI/ADR-RES = test: as above; format: cell-based, human; settings: Homo sapiens, 10 μM, Ovarian Cancer, read-out: Growth percentage
BT-549 = test: as above; format: cell-based; settings: Homo sapiens
[1] = tested on: 60 human cancer cell lines; test: NCI-60 screening, full panel (mean growth, MID a, ranges over all lines); settings: Homo sapiens, read-out: Mean growth percentage
[2] = 10 μM, BT-549, Breast Cancer, read-out: Growth percentage

| SMILES | activity at 10 µM (MDA-MB-435) | activity at 10 µM (OVCAR-8) | activity at 10 µM (SNB-19) | activity at 10 µM (SK-OV-3) | activity at 10 µM (SW-620) | Growth percentage (OVCAR-5) | activity at 10 µM (SN12C) | activity at 10 µM (HCT-15) | activity at 10 µM (HT29) | activity at 10 µM (OVCAR-3) | activity at 10 µM (KM12) | activity at 10 µM (NCI-H226) | activity at 10 µM (ACHN) | activity at 10 µM (HS 578T) | activity at 10 µM (UACC-257) | activity at 10 µM (HOP-62) | activity at 10 µM (MDA-MB-468) | Growth percentage (MDA-MB231/ATCC) | Growth percentage (T-47D) | activity at 10 µM (A549/ATCC) | other results |
| --- | --- | --- | --- | --- | --- | --- | --- | --- | --- | --- | --- | --- | --- | --- | --- | --- | --- | --- | --- | --- | --- |
| Cc1nc(SCC(=O)N2CCN(c3cc4c(cc3F)c(=O)c(C(=O)O)cn4C3CC3)CC2)sc1C(=O)/C=C/c1ccc(F)cc1 [Compound 4e, (E)-1-Cyclopropyl-6-fluoro-7-(4-(2-((5-(3-(4-fluorophenyl)acryloyl)-4-methylthiazol-2-yl)thio)acetyl)piperazin-1-yl)-4-oxo-1,4-dihydroquinoline-3-carboxylic Acid] | 104% | 105% | 101% | 114% | 126% | 119.2% | 99.5% | 96.8% | 115% | 116% | 97.3% | 98.3% | 98.9% | 105% | 106% | 108% | 106% | 101.1% | 95.6% | 104% | activity at 10 µM (HL-60(TB)): 107%; activity at 10 µM (TK-10): 103%; activity at 10 µM (MOLT-4): 105%; activity at 10 µM (CCRF-CEM): 104%; activity at 10 µM (SF-539): 99%; activity at 10 µM (NCI-H522): 98.2%; activity at 10 µM (SK-MEL-2): 104%; activity at 10 µM (NCI/ADR-RES): 104%; activity at 10 µM (BT-549; [2]): 102%; activity at 10 µM [1]: 100% |
| Cc1nc(SCC(=O)N2CCN(c3cc4c(cc3F)c(=O)c(C(=O)O)cn4C3CC3)CC2)sc1C(=O)/C=C/c1ccc(Br)cc1 [Compound 4f, (E)-7-(4-(2-((5-(3-(4-Bromophenyl)acryloyl)-4-methylthiazol-2-yl)thio)acetyl)piperazin-1-yl)-1-cyclopropyl-6-fluoro-4-oxo-1,4-dihydroquinoline-3-carboxylic Acid] | 107% | 75% | 93.8% | 110% | 116% | 110.6% | 101% | 106% | 117% | 170% | 108% | 107% | 107% | 99.6% | 118% | 94.3% | 109% | 98.6% | 89.3% | 107% | activity at 10 µM (HL-60(TB)): 83.3%; activity at 10 µM (TK-10): 108%; activity at 10 µM (MOLT-4): 96.2%; activity at 10 µM (CCRF-CEM): 106%; activity at 10 µM (SF-539): 89.9%; activity at 10 µM (NCI-H522): 105%; activity at 10 µM (SK-MEL-2): 105%; activity at 10 µM (NCI/ADR-RES): 107%; activity at 10 µM (BT-549; BT-549, read-out: Growth percentage): 107%; activity at 10 µM [1]: 102% |
| Cc1nc(SCC(=O)N2CCN(c3cc4c(cc3F)c(=O)c(C(=O)O)cn4C3CC3)CC2)sc1C(=O)/C=C/c1cccc([N+](=O)[O-])c1 [Compound 4g, (E)-1-Cyclopropyl-6-fluoro-7-(4-(2-((4-methyl-5-(3-(3-nitrophenyl)acryloyl)thiazol-2-yl)thio)acetyl)piperazin-1-yl)-4-oxo-1,4-dihydroquinoline-3-carboxylic Acid] | 71.9% | 69.2% | 87.7% | 121% | 69.8% | 119.9% | 65.4% | 71.7% | 37.2% | 163% | 21.7% | 102% | 110% | 99.1% | 99.8% | 94.5% | 92.8% | 92.4% | 84.1% | 90.3% | activity at 10 µM (HL-60(TB)): 80.5%; activity at 10 µM (TK-10): 109%; activity at 10 µM (MOLT-4): 86.4%; activity at 10 µM (CCRF-CEM): 74.5%; activity at 10 µM (SF-539): 64.5%; activity at 10 µM (NCI-H522): 72.3%; activity at 10 µM (SK-MEL-2): 68.9%; activity at 10 µM (NCI/ADR-RES): 102%; activity at 10 µM (BT-549; [2]): 66.9%; activity at 10 µM [1]: 80% |
